Values quoted from earlier work in patent publication US20210298340A1, “Cannabis-Infused Product with Extended Cannabinoid Profile User Experience” (HEXO Operations Inc., priority 2018, published 2021).
Like-named read-outs stand apart in the source and are kept apart here.

Assays:
[1] = dogs; emulsion with droplet size 119 nm or 52 nm
[2] = rats; solution in MCT oil or emulsion with droplet size 160 nm or 710 nm
[3] = tested on: skin; details: 3 macro-emulsions >1000 nm and 3 nano-emulsions <100 nm

CCCCN(CCCC)CCC(O)c1cc2c(Cl)cc(Cl)cc2c2cc(C(F)(F)F)ccc12 (stereo not drawn) [halofantrine]
bioavailability [1]: comparable

COc1nc(C(Cl)(Cl)Cl)c(Cl)c(OC)c1Cl [penclomedine]
bioavailability [2]: comparable

CCCCNc1ccc(C(=O)OCCN(C)C)cc1 [tetracaine]
influence of emulsion droplet size on in vitro dermal and transdermal skin penetration [3]: no influence
